For series [1] the following is noted: in H2O at ~15-20° C.; Table 2 weak organic acids; cited from earlier work.
Series [2] can be described thus: Acidic dissociation constants (pKa) of strong and weak organic acids. The format is physicochemical. Particulars: water; in H2O at ~15-20° C.; Table 2 weak organic acids; read-out: Median pKa.
Text: As used herein, the term “pKa” refers to acid dissociation constant (Ka) of a solution. […] The quantitative behavior of acids and bases in solution can be understood only if their pKa values are known. pKa describes the acidity of a particular molecule. It measures the strength of an acid by how tightly a proton is held by a Bronsted acid. The lower the value of pKa, the stronger the acid and the greater its ability to donate its protons. describe the acidity of a particular molecule Ka denotes the acid dissociation constant. It measures how completely an acid dissociates in an aqueous solution. The larger the value of Ka, the stronger the acid as acid largely dissociates into its ions and has lower pKa value.

Our source for the pKa1, pKa and pKa3 values is patent US20260130850A1, “TRANSDERMAL DELIVERY FORMULATIONS AND METHODS FOR THE MANUFACTURE THEREOF” (LIFEACTIVE, INC., priority 2023, published 2026).

With `O=c1[nH]c(=O)c2[nH]c(=O)[nH]c2[nH]1` [Uric Acid], in series [1], the pKa1 was 5.6. In series [2], the pKa (usually the pH at which an ionisable group is half protonated) was 5.6.
Take Citric Acid: the pKa3 in series [1] was 6.40.
